Test results: patent publication US9187471B2, “Pyrido [4,3-b] indole and pyrido [3,4-b] indole derivatives and methods of use” (Medivation Technologies, Inc., priority 2010, dated 2015)

Legend:
[1] = molecular target: T1, human recombinant histamine H1 receptor (Homo sapiens, UniProt P35367); assay: Histamine H1 radioligand binding ([3H]Pyrilamine); settings: read-out: Histamine H1 Binding (1 μM), percent inhibition of specific binding; compound at 1 μM; 1.2 nM [3H]Pyrilamine
T1 construct: expressed in transfected cells; host or cells: CHO-K1
T1 sequence (P35367 whole entry): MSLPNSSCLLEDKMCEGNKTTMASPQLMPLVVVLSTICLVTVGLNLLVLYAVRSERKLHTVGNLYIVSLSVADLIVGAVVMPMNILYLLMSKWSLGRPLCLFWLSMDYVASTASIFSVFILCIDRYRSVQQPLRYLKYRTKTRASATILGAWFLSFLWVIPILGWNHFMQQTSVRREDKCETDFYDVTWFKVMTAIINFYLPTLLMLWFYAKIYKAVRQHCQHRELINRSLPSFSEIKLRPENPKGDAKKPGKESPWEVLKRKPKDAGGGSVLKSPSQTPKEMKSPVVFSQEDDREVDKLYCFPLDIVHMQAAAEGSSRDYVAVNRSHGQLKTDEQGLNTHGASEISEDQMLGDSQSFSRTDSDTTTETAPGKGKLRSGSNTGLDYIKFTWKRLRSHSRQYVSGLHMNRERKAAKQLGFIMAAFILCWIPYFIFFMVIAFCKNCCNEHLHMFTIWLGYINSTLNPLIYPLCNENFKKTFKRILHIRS
Experimental: To evaluate in radioligand binding assays the activity of compounds of the invention, human recombinant histamine H1 receptor expressed in Chinese hamster ovary (CHO) K1 cells (De Backer, M. et al, Biochem. Biophys. Res. Comm. 197(3):1601, 1993) in a modified Tris-HCl buffer (50 mM Tris-HCl, pH 7.4, 2 mM MgCl2, 100 mM NaCl, 250 mM Sucrose) was used. […] Non-specific binding was estimated in the presence of 1 μM Pyrilamine. Receptor proteins were filtered and washed, the filters were then counted to determine [^3H]Pyrilamine specifically bound. […] Biochemical assay results are presented as the percent inhibition of specific binding in Table 2.

[2] = molecular target: T2, rat adrenergic α1A receptor (Rattus norvegicus, UniProt P43140); assay: Adrenergic α1A radioligand binding ([3H]Prazosin); settings: read-out: Adrenergic (0.1 μM) a1A, percent inhibition of specific binding; compound at 0.1 μM; 0.25 nM [3H]Prazosin
T2 construct: rat adrenergic α1A receptor obtained from Wistar Rat submaxillary glands; from tissue; host or cells: Wistar rat submaxillary glands
T2 sequence (P43140 1-466): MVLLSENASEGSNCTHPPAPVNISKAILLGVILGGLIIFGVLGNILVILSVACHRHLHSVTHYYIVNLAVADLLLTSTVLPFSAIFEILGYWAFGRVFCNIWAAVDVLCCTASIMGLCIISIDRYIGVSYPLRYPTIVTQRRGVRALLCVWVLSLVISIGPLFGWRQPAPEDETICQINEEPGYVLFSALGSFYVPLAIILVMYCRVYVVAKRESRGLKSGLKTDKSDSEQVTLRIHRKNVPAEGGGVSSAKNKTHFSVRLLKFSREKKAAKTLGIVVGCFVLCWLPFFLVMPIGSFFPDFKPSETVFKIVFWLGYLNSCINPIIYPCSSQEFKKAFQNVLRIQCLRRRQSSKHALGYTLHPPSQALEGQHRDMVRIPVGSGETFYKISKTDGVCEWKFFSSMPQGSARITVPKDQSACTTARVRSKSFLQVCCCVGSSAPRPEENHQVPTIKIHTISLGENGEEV
Experimental: To evaluate in radioligand binding assays the activity of compounds of the invention, rat adrenergic α1A receptor obtained from Wistar Rat submaxillary glands (Michel, A. et al, Br. J. Pharmacol. 98:883, 1989) in a modified Tris-HCl buffer (50 mM Tris-HCl buffer, pH 7.4, 0.5 mM EDTA) was used. Compounds of the invention were incubated with 0.25 nM [^3H]Prazosin for 60 min at 25° C. Non-specific binding was estimated in the presence of 10 μM phentolamine Receptor proteins were filtered and washed, the filters were then counted to determine [^3H]Prazosin specifically bound. […] Compounds of the invention were tested in this biochemical assay and percent inhibition of specific binding was determined.

[3] = molecular target: T3, human recombinant adrenergic α2C receptor (Homo sapiens, UniProt P18825); assay: Adrenergic α2C radioligand binding ([3H]MK-912); settings: read-out: Adrenergic (0.1 μM) a2C, percent inhibition of specific binding; compound at 0.1 μM; 1 nM [3H]MK-912
T3 construct: expressed in transfected cells; host or cells: insect Sf9 cells
T3 sequence (P18825 1-462): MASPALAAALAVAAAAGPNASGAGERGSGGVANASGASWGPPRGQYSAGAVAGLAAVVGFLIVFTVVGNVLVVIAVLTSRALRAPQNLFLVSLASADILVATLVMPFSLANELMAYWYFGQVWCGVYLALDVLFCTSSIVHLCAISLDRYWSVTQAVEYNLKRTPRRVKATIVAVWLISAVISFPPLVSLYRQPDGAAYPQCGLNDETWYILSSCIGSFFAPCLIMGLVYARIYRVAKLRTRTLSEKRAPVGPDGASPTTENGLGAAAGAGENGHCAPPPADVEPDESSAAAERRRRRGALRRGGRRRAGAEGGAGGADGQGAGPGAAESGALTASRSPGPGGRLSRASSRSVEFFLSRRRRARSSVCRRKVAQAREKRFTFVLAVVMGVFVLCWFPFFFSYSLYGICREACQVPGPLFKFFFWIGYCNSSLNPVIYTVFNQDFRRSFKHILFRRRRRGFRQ
Experimental: To evaluate in radioligand binding assays the activity of compounds of the invention, human recombinant adrenergic α2C receptor expressed in insect Sf9 cells (Uhlen, S. et al, J. Pharmacol. Exp. Ther. 271:1558, 1994) in a modified Tris-HCl buffer (50 mM Tris-HCl, pH 7.4, 12.5 mM MgCl2, 2 mM EDTA) was used. Compounds of the invention were incubated with 1 nM [^3H]MK-912 for 60 min at 25° C. Non-specific binding was estimated in the presence of 10 μM WB-4101. Receptor proteins were filtered and washed, the filters were then counted to determine [^3H]MK-912 specifically bound. […] Compounds of the invention were tested in this biochemical assay and percent inhibition of specific binding was determined.

[4] = molecular target: T4, human recombinant dopamine D2L receptor (Homo sapiens, UniProt P14416); assay: Dopamine D2L radioligand binding ([3H]Spiperone); settings: read-out: Dopamine D2L (1 μM), percent inhibition of specific binding; compound at 1 μM; 0.16 nM [3H]Spiperone
T4 construct: expressed in transfected cells; host or cells: CHO
T4 sequence (P14416 whole entry): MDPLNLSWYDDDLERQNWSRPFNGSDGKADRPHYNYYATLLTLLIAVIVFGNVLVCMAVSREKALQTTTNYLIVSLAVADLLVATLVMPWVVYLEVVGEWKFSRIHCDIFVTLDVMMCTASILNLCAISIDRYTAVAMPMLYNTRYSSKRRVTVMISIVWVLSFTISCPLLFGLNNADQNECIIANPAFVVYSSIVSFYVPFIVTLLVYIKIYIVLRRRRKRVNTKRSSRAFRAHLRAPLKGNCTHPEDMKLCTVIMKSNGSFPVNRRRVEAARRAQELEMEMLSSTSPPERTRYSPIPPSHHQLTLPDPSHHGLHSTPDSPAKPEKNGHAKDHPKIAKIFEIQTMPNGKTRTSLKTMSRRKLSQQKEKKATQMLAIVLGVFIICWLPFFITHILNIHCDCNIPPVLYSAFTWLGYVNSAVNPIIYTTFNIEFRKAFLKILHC
Experimental: Non-specific binding was estimated in the presence of 10 μM Haloperidol. Receptor proteins were filtered and washed, the filters were then counted to determine [^3H]Spiperone specifically bound.

[5] = molecular target: T5, human recombinant serotonin (5-Hydroxytryptamine) 5-HT2A receptor (Homo sapiens, UniProt P28223); assay: Serotonin 5-HT2A radioligand binding ([3H]Ketanserin); settings: compound at 0.1 μM; read-out: Inhibition of ligand binding, Serotonin 5-HT2A (percent inhibition of specific binding)
T5 construct: expressed in transfected cells; host or cells: CHO-K1
T5 sequence (P28223 whole entry): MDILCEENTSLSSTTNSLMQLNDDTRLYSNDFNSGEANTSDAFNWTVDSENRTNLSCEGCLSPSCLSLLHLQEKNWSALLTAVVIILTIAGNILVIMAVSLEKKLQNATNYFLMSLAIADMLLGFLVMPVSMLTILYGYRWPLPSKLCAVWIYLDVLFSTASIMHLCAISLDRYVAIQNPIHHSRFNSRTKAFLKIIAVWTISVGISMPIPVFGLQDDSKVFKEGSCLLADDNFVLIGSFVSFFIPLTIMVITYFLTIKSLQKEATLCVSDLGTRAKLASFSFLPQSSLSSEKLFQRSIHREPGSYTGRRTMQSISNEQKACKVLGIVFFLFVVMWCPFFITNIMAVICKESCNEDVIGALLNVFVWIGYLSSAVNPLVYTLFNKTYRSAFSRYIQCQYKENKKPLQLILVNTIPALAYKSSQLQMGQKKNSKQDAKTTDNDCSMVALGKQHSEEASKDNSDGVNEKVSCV
Experimental: Compounds of the invention were incubated with 0.5 nM [^3H]Ketanserin for 60 min at 25° C. Non-specific binding was estimated in the presence of 1 μM Mianserin. Receptor proteins were filtered and washed, the filters were then counted to determine [^3H]Ketanserin specifically bound.

[6] = molecular target: T6, human recombinant serotonin (5-Hydroxytryptamine) 5-HT2C receptor (Homo sapiens, UniProt P28335); assay: Serotonin 5-HT2C radioligand binding ([3H]Mesulergine); settings: compound at 0.1 μM; read-out: Inhibition of ligand binding, Serotonin 5-HT2C (percent inhibition of specific binding)
T6 construct: expressed in transfected cells; host or cells: CHO-K1
T6 sequence (P28335 33-458): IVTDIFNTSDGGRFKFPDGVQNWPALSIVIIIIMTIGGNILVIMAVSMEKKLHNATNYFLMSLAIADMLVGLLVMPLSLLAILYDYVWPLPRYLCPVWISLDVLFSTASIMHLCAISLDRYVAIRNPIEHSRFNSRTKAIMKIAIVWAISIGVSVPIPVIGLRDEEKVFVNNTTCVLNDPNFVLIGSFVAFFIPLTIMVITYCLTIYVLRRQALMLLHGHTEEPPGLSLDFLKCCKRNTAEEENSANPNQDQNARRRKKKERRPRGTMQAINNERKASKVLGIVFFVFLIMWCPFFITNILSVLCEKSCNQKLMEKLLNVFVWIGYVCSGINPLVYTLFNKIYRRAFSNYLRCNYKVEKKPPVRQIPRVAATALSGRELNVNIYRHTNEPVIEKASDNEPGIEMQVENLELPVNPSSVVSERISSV
Experimental: Compounds of the invention were incubated with 1 nM [^3H]Mesulergine for 60 min at 25° C. Non-specific binding was estimated in the presence of 1 μM Mianserin. Receptor proteins were filtered and washed, the filters were then counted to determine [^3H]Mesulergine specifically bound.

[7] = molecular target: T7, human recombinant serotonin (5-Hydroxytryptamine) 5-HT6 receptor (Homo sapiens, UniProt P50406); assay: Serotonin 5-HT6 radioligand binding ([3H]LSD); settings: compound at 0.1 μM; read-out: Inhibition of ligand binding, Serotonin 5-HT6 (percent inhibition of specific binding)
T7 construct: expressed in transfected cells; host or cells: HeLa
T7 sequence (P50406 whole entry): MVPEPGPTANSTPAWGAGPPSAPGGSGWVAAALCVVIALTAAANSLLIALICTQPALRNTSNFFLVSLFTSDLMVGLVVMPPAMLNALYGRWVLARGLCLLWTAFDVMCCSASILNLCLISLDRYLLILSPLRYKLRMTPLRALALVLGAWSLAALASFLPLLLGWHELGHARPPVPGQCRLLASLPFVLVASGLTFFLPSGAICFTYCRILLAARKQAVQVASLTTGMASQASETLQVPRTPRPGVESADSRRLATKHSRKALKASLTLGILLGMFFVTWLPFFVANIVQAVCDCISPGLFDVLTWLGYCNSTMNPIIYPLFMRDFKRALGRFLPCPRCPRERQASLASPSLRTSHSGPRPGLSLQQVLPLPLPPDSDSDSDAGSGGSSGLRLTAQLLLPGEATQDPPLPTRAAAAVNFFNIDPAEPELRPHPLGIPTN
Text: Receptor proteins were filtered and washed, the filters were then counted to determine [3H]LSD specifically bound.

[8] = molecular target: T8, human recombinant serotonin (5-Hydroxytryptamine) 5-HT7 receptor (Homo sapiens, UniProt P34969); assay: Serotonin 5-HT7 radioligand binding ([3H]LSD); settings: compound at 0.1 μM; read-out: Inhibition of ligand binding, Serotonin 5-HT7 (percent inhibition of specific binding)
T8 construct: expressed in transfected cells; host or cells: CHO
T8 sequence (P34969 whole entry): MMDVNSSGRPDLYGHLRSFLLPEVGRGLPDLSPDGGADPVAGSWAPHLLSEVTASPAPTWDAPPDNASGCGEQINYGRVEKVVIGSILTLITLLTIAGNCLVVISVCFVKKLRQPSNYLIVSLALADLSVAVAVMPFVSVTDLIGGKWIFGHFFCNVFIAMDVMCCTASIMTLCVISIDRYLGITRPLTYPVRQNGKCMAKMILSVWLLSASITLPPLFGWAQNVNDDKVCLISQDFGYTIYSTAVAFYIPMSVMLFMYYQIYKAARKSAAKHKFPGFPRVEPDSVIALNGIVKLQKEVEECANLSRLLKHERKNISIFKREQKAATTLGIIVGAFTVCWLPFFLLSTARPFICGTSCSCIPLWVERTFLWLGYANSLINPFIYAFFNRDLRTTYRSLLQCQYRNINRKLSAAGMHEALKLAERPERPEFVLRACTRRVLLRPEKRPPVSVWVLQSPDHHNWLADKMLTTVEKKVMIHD
Experimental: Lysergic acid diethylamide (LSD) for 120 min. at 25° C. […] Receptor proteins were filtered and washed, the filters were then counted to determine [^3H]LSD specifically bound.

Cc1ccc2c(c1)c1c(n2-c2ccccc2-c2ccc(F)cc2)CCN(C)C1 [Compound 10, 5-(4′-fluorobiphenyl-2-yl)-2,8-dimethyl-2,3,4,5-tetrahydro-1H-pyrido[4,3-b]indole]
inhibition at 1 µM [1]: 82% | inhibition at 0.1 µM [2]: 59% | inhibition at 0.1 µM [3]: 67% | inhibition at 1 µM [4]: 26% | inhibition at 0.1 µM [5]: 93% | inhibition at 0.1 µM [6]: 94% | inhibition at 0.1 µM [7]: 57% | inhibition at 0.1 µM [8]: 73%

Cc1ccc2c(c1)c1c(n2-c2ccoc2)CCN(C)C1 [Compound 15, 5-furan-3-yl-2,8-dimethyl-2,3,4,5-tetrahydro-1H-pyrido[4,3-b]indole]
inhibition at 1 µM [1]: 80% | inhibition at 0.1 µM [2]: 28% | inhibition at 0.1 µM [3]: 7% | inhibition at 1 µM [4]: 19% | inhibition at 0.1 µM [5]: 72% | inhibition at 0.1 µM [6]: 77% | inhibition at 0.1 µM [7]: 51% | inhibition at 0.1 µM [8]: 57%

Cc1ccc2c(c1)c1c(n2-c2cccs2)CCN(C)C1 [Compound 16, 2,8-dimethyl-5-thiophen-2-yl-2,3,4,5-tetrahydro-1H-pyrido[4,3-b]indole]
inhibition at 1 µM [1]: 86% | inhibition at 0.1 µM [2]: 7% | inhibition at 0.1 µM [3]: 17% | inhibition at 1 µM [4]: 49% | inhibition at 0.1 µM [5]: 94% | inhibition at 0.1 µM [6]: 89% | inhibition at 0.1 µM [7]: 74% | inhibition at 0.1 µM [8]: 62%

CN1CCc2c(c3cc(Cl)ccc3n2-c2ccsc2)C1 [Compound 29, 8-chloro-2-methyl-5-thiophen-3-yl-2,3,4,5-tetrahydro-1H-pyrido[4,3-b]indole]
inhibition at 1 µM [1]: 90% | inhibition at 1 µM [4]: 63% | inhibition at 0.1 µM [5]: 101% | inhibition at 0.1 µM [6]: 98% | inhibition at 0.1 µM [7]: 101% | inhibition at 0.1 µM [8]: 63%

Cc1ccc2c(c1)c1c(n2-c2ccc3ncccc3c2)CCN(C)C1 [Compound 24, 2,8-dimethyl-5-quinolin-6-yl-2,3,4,5-tetrahydro-1H-pyrido[4,3-b]indole]
inhibition at 1 µM [1]: 10% | inhibition at 1 µM [4]: 45% | inhibition at 0.1 µM [5]: 72% | inhibition at 0.1 µM [6]: 66% | inhibition at 0.1 µM [7]: 12% | inhibition at 0.1 µM [8]: 25%

Cc1ccc2c(c1)c1c(n2-c2ccccc2-c2cccnc2)CCN(C)C1 [Compound 13, 2,8-dimethyl-5-(2-pyridin-3-yl-phenyl)-2,3,4,5-tetrahydro-1H-pyrido[4,3-b]indole]
inhibition at 1 µM [1]: 72% | inhibition at 1 µM [4]: 21% | inhibition at 0.1 µM [5]: 73% | inhibition at 0.1 µM [6]: 73% | inhibition at 0.1 µM [7]: 14% | inhibition at 0.1 µM [8]: 47%

Cc1ccc2c(c1)c1c(n2-c2ccc3ccccc3c2)CCN(C)C1 [Compound 12, 2,8-dimethyl-5-naphthalen-2-yl-2,3,4,5-tetrahydro-1H-pyrido[4,3-b]indole]
inhibition at 1 µM [1]: 24% | inhibition at 1 µM [4]: 84% | inhibition at 0.1 µM [5]: 94% | inhibition at 0.1 µM [6]: 93% | inhibition at 0.1 µM [7]: 63% | inhibition at 0.1 µM [8]: 3%

Cc1ccc2c(c1)c1c(n2-c2ccccc2-c2ccncc2)CCN(C)C1 [Compound 5, 2,8-dimethyl-5-(2-pyridin-4-yl-phenyl)-2,3,4,5-tetrahydro-1H-pyrido[4,3-b]indole]
inhibition at 1 µM [1]: 38% | inhibition at 0.1 µM [2]: 24% | inhibition at 0.1 µM [3]: 11% | inhibition at 1 µM [4]: 2% | inhibition at 0.1 µM [5]: 83% | inhibition at 0.1 µM [6]: 81% | inhibition at 0.1 µM [7]: 26% | inhibition at 0.1 µM [8]: 64%

Cc1ccc2c(c1)c1c(n2-c2cncn2C)CCN(C)C1 [Compound 18, 2,8-dimethyl-5-(3-methyl-3H-imidazol-4-yl)-2,3,4,5-tetrahydro-1H-pyrido[4,3-b]indole]
inhibition at 1 µM [1]: 79% | inhibition at 1 µM [4]: 13% | inhibition at 0.1 µM [5]: 14% | inhibition at 0.1 µM [6]: 8% | inhibition at 0.1 µM [7]: 2% | inhibition at 0.1 µM [8]: 22%

Cc1ccc2c(c1)c1c(n2-c2cccc(N(C)C)c2)CCN(C)C1 [Compound 7, [3-(2,8-dimethyl-1,2,3,4-tetrahydro-pyrido[4,3-b]indol-5-yl)-phenyl]-dimethyl-amine]
inhibition at 1 µM [1]: 43% | inhibition at 1 µM [4]: 31% | inhibition at 0.1 µM [5]: 52% | inhibition at 0.1 µM [6]: 42% | inhibition at 0.1 µM [7]: 4% | inhibition at 0.1 µM [8]: 19%

CN1CCc2c(c3cc(Cl)ccc3n2-c2cscc2-c2ccncc2)C1 [Compound 28]
inhibition at 1 µM [1]: 46% | inhibition at 1 µM [4]: 20% | inhibition at 0.1 µM [5]: 68% | inhibition at 0.1 µM [6]: 76% | inhibition at 0.1 µM [7]: 45% | inhibition at 0.1 µM [8]: 95%
